Source: patent US8716530B2, “Facially amphiphilic polyaryl and polyarylalkynyl polymers and oligomers and uses thereof” (The Trustess of the University of Pennsylvania, priority 2004, dated 2014)
Converted amounts (≈) assume the structure as drawn. “And” between values parts separate entries of the source, which are not always exact repeats. Identical values can stand only once. Like-named read-outs stand apart in the source and are kept apart here.

Columns and labels:
Candida albicans = assay: MIC100, clinical isolates of hospital-acquired pathogens (Table 7); type: cell-based; details: one table line per isolate, RPMI synthetic medium, in µg/mL
E. coli [1] = assay: MIC100, modified NCCLS microbroth dilution (Table 6); type: cell-based; details: Escherichia coli
[2] = system: S. aureus and methicillin-resistant S. aureus (MRSA); assay: as above; type: cell-based; details: Staphylococcus aureus
B. anthracis = assay: microbe, parasite or virus in culture; type: cell-based, Bacillus anthracis
Y. pestis = assay: microbe, parasite or virus in culture; type: cell-based; details: Yersinia pestis, 30 h, read-out: MIC100 Y. pestis (30 hr)
S. aureus = type: cell-based; details: S. aureus passaged at 0.5x MIC100; by passage 16 (17 consecutive passages)
E. coli [3] = assay: Modified NCCLS microbroth dilution MIC assay; type: cell-based; details: Escherichia coli; for MIC: 18 to 20 hours incubation, OD 600 nm
human erythrocytes = assay: Hemolysis of human erythrocytes (HC50); details: for Hemolysis HC50: one hour incubation, 50% hemoglobin release, Table 1
B. subtilis = assay: Modified NCCLS microbroth dilution MIC assay; details: Bacillus subtilis; for MIC: read-out: B. subtilis MIC
Aspergillus fumigatus = assay: Antifungal MIC/MFC, NCCLS M38-A; type: cell-based
Procedure: (§1) MIC endpoints were determined for A. fumigatus, P. funiculosum, C. globosum and T. virens according to current NCCLS guidelines defined for testing A. fumigatus (NCCLS M38-A, 2002). […] Amphotericin B was included in the screen with C. albicans as a positive control. All MIC testing was done in 96 well microtiter panels using RPMI 1640 (with glutamine and without bicarbonate) broth as a growth media. Incubation was at 35° C., and growth was read at 48, 72, (and for some slow growing fungal species, 96 hours). […] MFC (minimal fungicidal concentrations) endpoints were calculated using a modified methodology based on the NCCLS defined methodology for measuring minimal bactericidal concentrations (MBC). Experimentation to calculate MFCs was undertaken only for those organisms for which an MIC endpoint was satisfactorily calculated. MFCs are defined as the concentration required to reduce the number of viable organisms by at least 90%.

Chaetomium globosum = assay: Antifungal MIC/MFC, NCCLS M38-A; type: cell-based
Procedure: as §1

Penicillium funiculosum = assay: Antifungal MIC/MFC, NCCLS M38-A; type: cell-based
Procedure: as §1

Trichoderma virens = assay: Antifungal MIC/MFC, NCCLS M38-A; type: cell-based
Procedure: as §1

Enterococcus faecalis = assay: MIC100, clinical isolates of hospital-acquired pathogens (Table 7); type: cell-based; details: control strain ATCC 29212
Haemophilus influenzae = assay: as above; type: cell-based; details: Mueller Hinton+NAD+yeast extract+hematin
Streptococcus pyogenes = assay: as above; type: cell-based; details: Mueller Hinton+2-5% lysed horse blood, in µg/mL
Streptococcus pneumoniae = assay: as above; type: cell-based; details: for mic (MIC100) Streptococcus pneumoniae: clinical isolates, no phenotype given; for mic (MIC100) Streptococcus pneumoniae / mic (MIC100) Streptococcus pneumoniae PEN-R: Mueller Hinton+2-5% lysed horse blood, in µg/mL; for mic (MIC100) Streptococcus pneumoniae ATCC 49619: control strain ATCC 49619; for mic (MIC100) Streptococcus pneumoniae PEN-R: penicillin-resistant clinical isolates
[4] = concentration reducing viable organisms by at least 90%

C[C@@H]1[C@H](O)[C@@H](C)/C=C/C=C/C=C/C=C/C=C/C=C/C=C/[C@H](O[C@@H]2O[C@H](C)[C@@H](O)[C@H](N)[C@@H]2O)C[C@@H]2O[C@](O)(C[C@@H](O)C[C@@H](O)[C@H](O)CC[C@@H](O)C[C@@H](O)CC(=O)O[C@H]1C)C[C@H](O)[C@H]2C(=O)O [AMP B, amphotericin B]
mic (MIC100) Candida albicans (Candida albicans): 2

NCC[C@H](O)C(=O)N[C@@H]1C[C@H](N)[C@@H](O[C@H]2O[C@H](CN)[C@@H](O)[C@H](O)[C@H]2O)[C@H](O)[C@H]1O[C@H]1O[C@H](CO)[C@@H](O)[C@H](N)[C@H]1O [Amikacin, amikacin, reference compound]
MIC (E. coli [1]; strain ATCC25922, read-out: MIC100 E. coli ATCC25922): 1 µg/mL (≈ 1.71 µM) | MIC (E. coli [1]; strain OC2530, read-out: MIC100 E. coli OC2530): 2 µg/mL (≈ 3.42 µM) | MIC ([2]; ATCC 29213 / MRSA, strain ATCC29213 (Table 6), read-out: MIC100 S. aureus ATCC29213): 2 µg/mL (≈ 3.42 µM) | MIC ([2]; MRSA, methicillin-resistant S. aureus OC2878, read-out: MIC100 MRSA OC2878): 64 µg/mL (≈ 109 µM)

O=C(O)c1cn(C2CC2)c2cc(N3CCNCC3)c(F)cc2c1=O [Ciprofloxacin, ciprofloxacin, reference compound]
MIC (B. anthracis; Bacillus anthracis, 24 h, read-out: MIC100 B. anthracis (24 hr)): 0.125 to 0.25 µg/mL (≈ 0.377 to 0.754 µM) | Time course of growth inhibition of Bacillus anthracis (B. anthracis; growth recorded at 2 hour intervals over 24 hours (FIG. 3)): transient cell growth was observed at early time points | MIC (Y. pestis): 0.0312 µg/mL (≈ 0.0942 µM) | increase in MIC on serial passage (S. aureus): 125 fold

N=C(N)NCCc1cc(Br)cc(C#Cc2cccc(C#Cc3cc(Br)cc(CCNC(=N)N)c3)c2)c1 [Compound 2]
MIC90 (E. coli [3]; read-out: MIC90 E. Coli): 1.6 µg/mL (≈ 2.64 µM) | MIC (E. coli [3]): 3.2 µg/mL (≈ 5.28 µM) | Hemolysis HC50 (human erythrocytes; human erythrocytes): 8 µg/mL | HC50 (human erythrocytes; human erythrocytes, Table 2): 8.5 µg/mL | Selectivity HC50/MIC E.coli (human erythrocytes; ratio of HC50 to E. coli MIC): 5.3 | MIC (B. subtilis): 1.6 µg/mL (≈ 2.64 µM) | MIC90 (B. subtilis; read-out: MIC90 B. subtilis): 1.6 µg/mL (≈ 2.64 µM)

NCCNC(=O)c1cc(Br)cc(C#Cc2cccc(C#Cc3cc(Br)cc(C(=O)NCCN)c3)c2)c1 [Compound 4]
MIC (E. coli [3]): 50 µg/mL (≈ 82.2 µM) | Hemolysis HC50 (human erythrocytes; human erythrocytes): 12.5 µg/mL | MIC (B. subtilis): 25 µg/mL (≈ 41.1 µM)

CCCCCOc1c(I)cc(CN)cc1C#Cc1cccc(C#Cc2cc(CN)cc(I)c2OCCCCC)c1 [Compound 5]
MIC (E. coli [3]): 25 µg/mL (≈ 32.9 µM) | Hemolysis HC50 (human erythrocytes; human erythrocytes): <12.5 µg/mL | MIC (B. subtilis): 100 µg/mL (≈ 131 µM)

CCCCCOc1c(I)cc(CNC(=N)N)cc1C#Cc1cccc(C#Cc2cc(CNC(=N)N)cc(I)c2OCCCCC)c1 [Compound 6]
MIC (E. coli [3]): 6.4 µg/mL (≈ 7.58 µM) | Hemolysis HC50 (human erythrocytes; human erythrocytes): 5 µg/mL | MIC (B. subtilis): 3.2 µg/mL (≈ 3.79 µM)

OC(Cn1cncn1)(Cn1cncn1)c1ccc(F)cc1F [Fluconazole, reference compound]
MIC Aspergillus fumigatus (Aspergillus fumigatus; RPMI 1640, 35° C.): >32/>32 | MFC Aspergillus fumigatus (Aspergillus fumigatus; [4]): >32/>32 | MIC Chaetomium globosum (Chaetomium globosum; RPMI 1640, 35° C.): 0.25/0.25 | MFC Chaetomium globosum (Chaetomium globosum; [4]): 0.25/0.25 | MIC Penicillium funiculosum (Penicillium funiculosum; RPMI 1640, 35° C.): 4 µg/mL (≈ 13.1 µM) | MFC Penicillium funiculosum (Penicillium funiculosum; [4]): > 32 µg/mL | MIC Trichoderma virens (Trichoderma virens; RPMI 1640, 35° C.): >128/>128 | MFC Trichoderma virens (Trichoderma virens; [4]): >128/>128

C[C@H]1COc2c(N3CCN(C)CC3)c(F)cc3c(=O)c(C(=O)O)cn1c23 [LEVOFLOX, levofloxacin]
mic (MIC100) Candida albicans (Candida albicans): >8 | mic (MIC100) Enterococcus faecalis ATCC 29212 (Enterococcus faecalis): 0.5 µg/mL | mic (MIC100) Haemophilus influenzae (Haemophilus influenzae): ≦0.03 | mic (MIC100) Streptococcus pyogenes (Streptococcus pyogenes): 0.25 and 0.5 | mic (MIC100) Streptococcus pneumoniae (Streptococcus pneumoniae): 1 and 0.5 | mic (MIC100) Streptococcus pneumoniae ATCC 49619 (Streptococcus pneumoniae): 0.5 µg/mL | mic (MIC100) Streptococcus pneumoniae PEN-R (Streptococcus pneumoniae): 0.5

CC(=O)NC[C@H]1CN(c2ccc(N3CCOCC3)c(F)c2)C(=O)O1 [LINEZOLID, linezolid]
mic (MIC100) Candida albicans (Candida albicans): >8 | mic (MIC100) Enterococcus faecalis ATCC 29212 (Enterococcus faecalis): 2 µg/mL | mic (MIC100) Haemophilus influenzae (Haemophilus influenzae; in µg/mL): >8 and 8 | mic (MIC100) Streptococcus pyogenes (Streptococcus pyogenes): 1 | mic (MIC100) Streptococcus pneumoniae (Streptococcus pneumoniae): 1 | mic (MIC100) Streptococcus pneumoniae ATCC 49619 (Streptococcus pneumoniae): 1 µg/mL | mic (MIC100) Streptococcus pneumoniae PEN-R (Streptococcus pneumoniae): 0.5 and 1

CN[C@H](CC(C)C)C(=O)N[C@H]1C(=O)N[C@@H](CC(N)=O)C(=O)N[C@H]2C(=O)N[C@H]3C(=O)N[C@H](C(=O)N[C@H](C(=O)O)c4cc(O)cc(O)c4-c4cc3ccc4O)[C@H](O)c3ccc(c(Cl)c3)Oc3cc2cc(c3O[C@@H]2O[C@H](CO)[C@@H](O)[C@H](O)[C@H]2O[C@H]2C[C@](C)(N)[C@H](O)[C@H](C)O2)Oc2ccc(cc2Cl)[C@H]1O [VANCO, vancomycin]
mic (MIC100) Candida albicans (Candida albicans): >32 | mic (MIC100) Enterococcus faecalis ATCC 29212 (Enterococcus faecalis): 4 µg/mL | mic (MIC100) Haemophilus influenzae (Haemophilus influenzae; in µg/mL): >32 | mic (MIC100) Streptococcus pyogenes (Streptococcus pyogenes): 0.5 | mic (MIC100) Streptococcus pneumoniae (Streptococcus pneumoniae): 0.5 | mic (MIC100) Streptococcus pneumoniae ATCC 49619 (Streptococcus pneumoniae): 0.5 µg/mL | mic (MIC100) Streptococcus pneumoniae PEN-R (Streptococcus pneumoniae): 0.5 and 1

CCn1cc(C(=O)O)c(=O)c2cc(F)c(N3CCNCC3)cc21 [norfloxacin]
increase in MIC on serial passage (S. aureus): 160 fold
